According to patent US20240423973A1, “COMPOUNDS, PHARMACEUTICAL COMPOSITIONS, AND METHODS FOR THE TREATMENT, PREVENTION, OR MANAGEMENT OF HYPERPROLIFERATIVE DISORDERS” (VINCERX PHARMA GMBH, priority 2021, published 2024):
pEC50, pIC50: −log10 of the molar value.

What was measured:
786-O = assay: Cytotoxicity in vitro in the presence and absence of elastase (MTT assay); assay type: cell-based, human; conditions: 786-O cells, 72 h
Method in brief: (§1)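 Two matched sets receive test compound across 10^−5 to 10^−13 M, one with 10 nM elastase added, and are incubated 72 h at 37 °C. Proliferation is measured by MTT (4 h, then overnight detergent lysis, 570 nm) against untreated controls.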

HT29 = assay: as above; assay type: cell-based, human; conditions: HT29 cells, 72 h
Method in brief: as §1

NCI H292 = assay: as above; assay type: cell-based, human; conditions: NCI H292 cells, 72 h
Method in brief: as §1

SUM149 = assay: as above; assay type: cell-based; conditions: SUM149 cells, 72 h
Method in brief: as §1

avb3 = assay: EC50 [nM]
Excerpt: Table printed on a drawing sheet, FIG. 4
Head of the field: EC50 [nM]
The patent's description of the figure: FIG. 4: avb3 binding of selected examples and EC50 values
First copying reader's note: EC50 values relate to the αvβ3 binding assay plotted next to the table; R^2 is the goodness of fit of the curve.
Where the first naming reader finds the target: description_of_the_figure: FIG. 4: avb3 binding of selected examples and EC50 values

[1] = Compound stability in rat plasma; assay type: in vitro ADME; conditions: rat plasma at 37° C., 4-hour assay, detected by LC-MS
Procedure: (§2) Compound B1, Compound C2, and Compound C3 were evaluated for stability in plasma and/or buffer. Compound B1 was stable in rat plasma at 37° C. (FIG. 1 panel (a)) and in buffer at pH 7.4 (FIG. 1 panel (b)) for the duration of the 4-hour assay.
Method for measurement of stability in rat and human plasma: 1 mg of the test compound is dissolved in 0.5 ml acetonitrile/dimethylsulfoxide 1:1. For complete dissolution the HPLC vial is shaken and sonicated. While vortexing 20 μl of this solution are added to 1 ml 37° C. warm plasma. After 0.17, 0.5, 1, 1.5, 2 and 4 hours the enzymatic reaction is stopped by adding 100 μl of the compound plasma solution to a vial containing 300 μl acetonitrile/buffer pH3 (80:20) at RT. The mixture is centrifuged at 5000 rpm for 10 minutes. The supernatant is analyzed by HPLC to determine the amount of the test compound and up to two byproducts. To values result from a processed sample immediately taken after vortexing with plasma at RT. The peak areas (in percentage) are used for quantification. All data is given as percent area of the initial compound at to.

[2] = Compound stability in buffer; assay type: physicochemical; conditions: buffer at pH 4, within 24 hours
Procedure: as §2
Method for measurement of stability in buffer: 0.15 mg of the test compound are solved in 0.1 ml dimethylsulfoxide and 0.4 ml acetonitrile. For complete dissolution the HPLC vial with the sample solution is shaken and sonicated. Then 1.0 ml of the respective buffer solution is added, and the sample is vortexed. The sample solution is analysed by HPLC to determine the amount of the test compound and up to two byproducts at a particular time over a period of 24 h at 37° C. to values result from a sample immediately taken after vortexing with buffer at RT. The peak areas (in percentage) are used for quantification.

Row | SMILES | pIC50 (786-O; compound alone (no elastase)) | pIC50 (786-O; with 10 nM elastase) | pIC50 (HT29; compound alone (no elastase)) | pIC50 (HT29; with 10 nM elastase) | pIC50 (NCI H292; compound alone (no elastase)) | pIC50 (NCI H292; with 10 nM elastase) | pIC50 (SUM149; compound alone (no elastase)) | pIC50 (SUM149; with 10 nM elastase) | pEC50 (avb3) | ester cleavage in rat plasma [1] | release of free payload in buffer [2]
1 | CCCNC(=O)Nc1cccc(S(=O)(=O)Nc2cccc([C@@H](CC(=O)O)NC(=O)Nc3ccc(NC(=O)NCCC(=O)NCCCC[C@H](NC(=O)CCNC(=O)Nc4ccc(NC(=O)N[C@H](CC(=O)O)c5cccc(NS(=O)(=O)c6cccc(NC(=O)NCCC)c6)c5)cc4)C(=O)NCCOCCOCCOCCC(=O)N[C@@H](CC(=O)O)C(=O)N4CCC[C@H]4C(=O)N[C@H](C(=O)O[C@]4(CC)C(=O)OCc5c4cc4n(c5=O)Cc5c-4nc4ccccc4c5CC)C(C)C)cc3)c2)c1 [Compound A2] | 7.00 to 8.00 | 10.00 to 11.00 | < 7.00 | 10.00 to 11.00 | 7.00 to 8.00 | 10.00 to 11.00 | 7.00 to 8.00 | 10.00 to 11.00 | 7.01 |  | 
2 | CCCNC(=O)Nc1cccc(S(=O)(=O)Nc2cccc(C(CC(=O)O)NC(=O)Nc3ccc(NC(=O)NCCOCCOCCOCCC(=O)NCCCCC(NC(=O)CCOCCOCCOCCNC(=O)Nc4ccc(NC(=O)NC(CC(=O)O)c5cccc(NS(=O)(=O)c6cccc(NC(=O)NCCC)c6)c5)cc4)C(=O)NCCOCCOCCOCCC(=O)NC(CC(=O)O)C(=O)N4CCCC4C(=O)NC(C(=O)OC4(CC)C(=O)OCc5c4cc4n(c5=O)Cc5c-4nc4ccccc4c5CC)C(C)C)cc3)c2)c1 (stereo not drawn) [Compound A3] |  |  |  |  |  |  |  |  | 7.26 |  | 
3 | CCCNC(=O)Nc1cccc(S(=O)(=O)Nc2cccc([C@@H](CC(=O)O)NC(=O)Nc3ccc(NC(=O)NCCOCCOCCOCCC(=O)N[C@@H](CC(=O)OCCCN(C)C)C(=O)N4CCC[C@H]4C(=O)N[C@H](C(=O)O[C@]4(CC)C(=O)OCc5c4cc4n(c5=O)Cc5c-4nc4ccccc4c5CC)C(C)C)cc3)c2)c1 [Compound C2, (3R)-3-[({4-[({(9S)-9-[(2S)-2-{[(2S)-1-{[(4S)-4,11-diethyl-3,14-dioxo-3,4,12,14-tetrahydro-1H-pyrano[3′,4′:6,7]indolizino[1,2-b]quinolin-4-yl]oxy}-3-methyl-1-oxobutan-2-yl]carbamoyl}pyrrolidine-1-carbonyl]-2-methyl-7,11-dioxo-6,14,17,20-tetraoxa-2,10-diazadocosan-22-yl}carbamoyl)amino]phenyl}carbamoyl)amino]-3-[3-({3-[(propylcarbamoyl)amino]benzene-1-sulfonyl}amino)phenyl]propanoic acid] | 7.00 to 8.00 | 9.00 to 10.00 | 8.00 to 8.96 | 9.00 to 10.00 | 7.00 to 8.00 | 9.00 to 10.00 | 9.00 to 10.00 | 10.00 to 11.00 |  | slow ester cleavage and release of the aspartate moiety | No release of free payload is detected
4 | CCCNC(=O)Nc1cccc(S(=O)(=O)Nc2cccc([C@@H](CC(=O)O)NC(=O)Nc3ccc(NC(=O)NCCOCCOCCOCCC(=O)N[C@@H](CC(=O)OCCCCN(C)C)C(=O)N4CCC[C@H]4C(=O)N[C@H](C(=O)O[C@]4(CC)C(=O)OCc5c4cc4n(c5=O)Cc5c-4nc4ccccc4c5CC)C(C)C)cc3)c2)c1 [Compound C3, (3R)-3-[({4-[({(10S)-10-[(2S)-2-{[(2S)-1-{[(4S)-4,11-Diethyl-3,14-dioxo-3,4,12,14-tetrahydro-1H-pyrano[3′,4′:6,7]indolizino[1,2-b]quinolin-4-yl]oxy}-3-methyl-1-oxobutan-2-yl]carbamoyl}pyrrolidine-1-carbonyl]-2-methyl-8,12-dioxo-7,15,18,21-tetraoxa-2,11-diazatricosan-23-yl}carbamoyl)amino]phenyl}carbamoyl)amino]-3-[3-({3-[(propylcarbamoyl)amino]benzene-1-sulfonyl}amino)phenyl]propanoic acid] | 7.00 to 8.00 | 9.00 to 10.00 | 7.00 to 8.00 | 9.00 to 10.00 | 7.00 to 8.00 | 9.00 to 10.00 | 8.00 to 8.96 | 10.00 to 11.00 |  | slow ester cleavage and release of the aspartate moiety | No release of free payload is detected
